From ChEMBL document CHEMBL5230114, “Current development of CFTR potentiators in the last decade” (Eur J Med Chem, 2020) come the findings set out here.

Assay [1] relates to Cystic fibrosis transmembrane conductance regulator (Homo sapiens), P13569 [F508del]. The experiment in a line: Potentiation of CD4-HRP tagged CFTR F508del mutant NBD1 (unknown origin) expressed in MDCK cells assessed as increase in chloride current by measuring fold increase in luminescence signal incubated for 24 hrs relative to control. Type of assay: cell-based. As to conditions: filed as activator.
Chain of Cystic fibrosis transmembrane conductance regulator (Homo sapiens), P13569 [F508del] (P13569 as listed by the source): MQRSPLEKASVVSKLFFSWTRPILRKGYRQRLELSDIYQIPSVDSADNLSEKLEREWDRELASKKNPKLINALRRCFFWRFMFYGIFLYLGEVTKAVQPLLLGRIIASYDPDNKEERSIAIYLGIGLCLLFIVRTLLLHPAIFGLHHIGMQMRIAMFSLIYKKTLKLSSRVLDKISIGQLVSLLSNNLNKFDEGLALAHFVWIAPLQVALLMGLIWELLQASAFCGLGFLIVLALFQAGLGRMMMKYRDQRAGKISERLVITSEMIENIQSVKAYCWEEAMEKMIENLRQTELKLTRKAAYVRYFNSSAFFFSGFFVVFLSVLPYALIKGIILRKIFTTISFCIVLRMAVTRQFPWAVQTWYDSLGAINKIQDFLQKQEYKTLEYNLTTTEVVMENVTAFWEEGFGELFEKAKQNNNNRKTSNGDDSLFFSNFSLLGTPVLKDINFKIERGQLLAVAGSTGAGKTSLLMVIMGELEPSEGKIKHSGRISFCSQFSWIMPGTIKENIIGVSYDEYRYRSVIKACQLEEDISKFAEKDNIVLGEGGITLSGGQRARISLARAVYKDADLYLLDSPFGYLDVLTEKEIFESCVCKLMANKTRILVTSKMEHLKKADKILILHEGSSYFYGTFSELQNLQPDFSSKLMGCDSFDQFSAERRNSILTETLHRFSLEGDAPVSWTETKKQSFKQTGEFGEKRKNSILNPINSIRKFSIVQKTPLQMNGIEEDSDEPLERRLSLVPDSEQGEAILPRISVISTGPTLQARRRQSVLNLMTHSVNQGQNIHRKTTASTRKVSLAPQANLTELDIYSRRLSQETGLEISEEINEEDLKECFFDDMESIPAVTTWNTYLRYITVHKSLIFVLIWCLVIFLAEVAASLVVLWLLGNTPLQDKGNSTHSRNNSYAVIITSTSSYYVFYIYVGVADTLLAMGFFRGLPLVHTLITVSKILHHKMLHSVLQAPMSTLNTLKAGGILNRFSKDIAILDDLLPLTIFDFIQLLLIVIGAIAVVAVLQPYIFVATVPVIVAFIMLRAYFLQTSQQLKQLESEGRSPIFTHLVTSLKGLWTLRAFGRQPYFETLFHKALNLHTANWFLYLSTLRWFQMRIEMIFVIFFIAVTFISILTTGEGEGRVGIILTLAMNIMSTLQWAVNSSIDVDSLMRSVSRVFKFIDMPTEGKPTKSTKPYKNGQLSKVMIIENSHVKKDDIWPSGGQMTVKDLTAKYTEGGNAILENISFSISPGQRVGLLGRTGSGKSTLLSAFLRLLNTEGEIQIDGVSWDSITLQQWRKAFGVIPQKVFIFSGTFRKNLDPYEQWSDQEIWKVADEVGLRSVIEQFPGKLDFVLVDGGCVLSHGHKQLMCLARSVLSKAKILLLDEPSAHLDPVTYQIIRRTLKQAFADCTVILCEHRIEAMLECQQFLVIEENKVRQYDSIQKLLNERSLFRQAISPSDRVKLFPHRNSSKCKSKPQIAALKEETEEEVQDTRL

Assay [2] addresses Cystic fibrosis transmembrane conductance regulator (Homo sapiens, UniProt P13569, F508DEL). The assay can be described thus: Potentiation of CFTR F508del mutant activity (unknown origin).
The subject of assay [3] is Cystic fibrosis transmembrane conductance regulator (Rattus norvegicus), P34158 [UNDEFINED MUTATION]. The experiment in a line: Potency index, ratio of genistein EC50 to test compound EC50 for potentiation of CFTR F508del mutant in rat FRT cells assessed as increase in iodide influx in presence of forskolin. It is filed as cell-based.
For assay [4], the target named is Cystic fibrosis transmembrane conductance regulator (Rattus norvegicus, UniProt P34158, F508DEL). The experiment in a line: Potentiation of CFTR F508del mutant in rat FRT cells assessed as increase in iodide influx in presence of forskolin. It is filed as cell-based.
Chain of Cystic fibrosis transmembrane conductance regulator (Rattus norvegicus, UniProt P34158, F508DEL) (P34158 whole entry F508del, looked up): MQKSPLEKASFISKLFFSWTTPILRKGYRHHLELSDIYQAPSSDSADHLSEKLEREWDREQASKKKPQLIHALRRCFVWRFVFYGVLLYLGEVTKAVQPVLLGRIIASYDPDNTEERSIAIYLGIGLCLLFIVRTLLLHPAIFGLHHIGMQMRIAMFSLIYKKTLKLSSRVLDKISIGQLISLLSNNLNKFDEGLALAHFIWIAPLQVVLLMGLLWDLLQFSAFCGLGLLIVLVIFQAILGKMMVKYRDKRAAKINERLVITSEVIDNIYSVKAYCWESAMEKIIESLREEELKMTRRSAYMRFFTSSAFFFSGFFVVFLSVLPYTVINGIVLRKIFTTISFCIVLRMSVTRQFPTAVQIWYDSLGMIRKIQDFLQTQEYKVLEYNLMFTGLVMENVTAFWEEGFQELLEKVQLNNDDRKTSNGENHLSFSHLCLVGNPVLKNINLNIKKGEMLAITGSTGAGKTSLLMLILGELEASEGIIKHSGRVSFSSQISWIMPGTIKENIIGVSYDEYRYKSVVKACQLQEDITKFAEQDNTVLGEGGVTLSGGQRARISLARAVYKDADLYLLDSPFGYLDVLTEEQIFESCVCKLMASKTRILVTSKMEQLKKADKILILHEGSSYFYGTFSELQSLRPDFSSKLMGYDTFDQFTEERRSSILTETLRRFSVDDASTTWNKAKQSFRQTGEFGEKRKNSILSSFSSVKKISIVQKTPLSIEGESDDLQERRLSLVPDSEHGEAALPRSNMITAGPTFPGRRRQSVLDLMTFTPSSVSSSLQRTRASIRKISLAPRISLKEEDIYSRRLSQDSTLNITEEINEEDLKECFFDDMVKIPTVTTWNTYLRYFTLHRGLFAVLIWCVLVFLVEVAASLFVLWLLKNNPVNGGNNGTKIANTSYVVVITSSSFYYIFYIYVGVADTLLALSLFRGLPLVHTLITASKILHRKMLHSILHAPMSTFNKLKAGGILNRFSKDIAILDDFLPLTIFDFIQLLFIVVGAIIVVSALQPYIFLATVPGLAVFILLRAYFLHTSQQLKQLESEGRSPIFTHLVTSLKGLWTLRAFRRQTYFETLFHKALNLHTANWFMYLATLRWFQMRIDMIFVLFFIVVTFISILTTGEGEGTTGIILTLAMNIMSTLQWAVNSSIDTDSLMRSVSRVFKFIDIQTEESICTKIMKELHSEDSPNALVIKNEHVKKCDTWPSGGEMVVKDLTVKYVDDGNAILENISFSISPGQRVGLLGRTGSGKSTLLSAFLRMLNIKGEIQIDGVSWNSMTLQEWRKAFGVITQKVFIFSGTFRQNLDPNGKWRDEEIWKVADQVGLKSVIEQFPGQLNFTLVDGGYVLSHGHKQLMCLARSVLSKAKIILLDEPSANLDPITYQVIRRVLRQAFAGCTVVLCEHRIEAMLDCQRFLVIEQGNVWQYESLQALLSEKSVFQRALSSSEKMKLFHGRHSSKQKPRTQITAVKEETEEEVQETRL
The target in assay [5] is Cystic fibrosis transmembrane conductance regulator (Homo sapiens, UniProt P13569, W1282X). The assay can be described thus: Potentiation of CFTR W1282X mutant (unknown origin) expressed in rat FRT cells. Type of assay: cell-based.
In assay [6] the test system is Cystic fibrosis transmembrane conductance regulator (Homo sapiens), P13569 [F508del]. The assay can be described thus: Potentiation of CFTR F508del mutant (unknown origin) expressed in rat FRT cells assessed as increase in chloride current by measuring maximal effect at 30 uM in presence of forskolin relative to control. Type of assay: cell-based. To be noted: filed as activator.

The structures appear in SMILES notation.

As a reminder, the EC50 is the concentration needed to bring the measured effect to its halfway point.

Chain of Cystic fibrosis transmembrane conductance regulator (Homo sapiens, UniProt P13569, F508DEL) (P13569 as listed by the source): as the sequence (P13569 as listed by the source) above
Chain of Cystic fibrosis transmembrane conductance regulator (Rattus norvegicus), P34158 [UNDEFINED MUTATION] (P34158 whole entry, looked up, stated change not applied): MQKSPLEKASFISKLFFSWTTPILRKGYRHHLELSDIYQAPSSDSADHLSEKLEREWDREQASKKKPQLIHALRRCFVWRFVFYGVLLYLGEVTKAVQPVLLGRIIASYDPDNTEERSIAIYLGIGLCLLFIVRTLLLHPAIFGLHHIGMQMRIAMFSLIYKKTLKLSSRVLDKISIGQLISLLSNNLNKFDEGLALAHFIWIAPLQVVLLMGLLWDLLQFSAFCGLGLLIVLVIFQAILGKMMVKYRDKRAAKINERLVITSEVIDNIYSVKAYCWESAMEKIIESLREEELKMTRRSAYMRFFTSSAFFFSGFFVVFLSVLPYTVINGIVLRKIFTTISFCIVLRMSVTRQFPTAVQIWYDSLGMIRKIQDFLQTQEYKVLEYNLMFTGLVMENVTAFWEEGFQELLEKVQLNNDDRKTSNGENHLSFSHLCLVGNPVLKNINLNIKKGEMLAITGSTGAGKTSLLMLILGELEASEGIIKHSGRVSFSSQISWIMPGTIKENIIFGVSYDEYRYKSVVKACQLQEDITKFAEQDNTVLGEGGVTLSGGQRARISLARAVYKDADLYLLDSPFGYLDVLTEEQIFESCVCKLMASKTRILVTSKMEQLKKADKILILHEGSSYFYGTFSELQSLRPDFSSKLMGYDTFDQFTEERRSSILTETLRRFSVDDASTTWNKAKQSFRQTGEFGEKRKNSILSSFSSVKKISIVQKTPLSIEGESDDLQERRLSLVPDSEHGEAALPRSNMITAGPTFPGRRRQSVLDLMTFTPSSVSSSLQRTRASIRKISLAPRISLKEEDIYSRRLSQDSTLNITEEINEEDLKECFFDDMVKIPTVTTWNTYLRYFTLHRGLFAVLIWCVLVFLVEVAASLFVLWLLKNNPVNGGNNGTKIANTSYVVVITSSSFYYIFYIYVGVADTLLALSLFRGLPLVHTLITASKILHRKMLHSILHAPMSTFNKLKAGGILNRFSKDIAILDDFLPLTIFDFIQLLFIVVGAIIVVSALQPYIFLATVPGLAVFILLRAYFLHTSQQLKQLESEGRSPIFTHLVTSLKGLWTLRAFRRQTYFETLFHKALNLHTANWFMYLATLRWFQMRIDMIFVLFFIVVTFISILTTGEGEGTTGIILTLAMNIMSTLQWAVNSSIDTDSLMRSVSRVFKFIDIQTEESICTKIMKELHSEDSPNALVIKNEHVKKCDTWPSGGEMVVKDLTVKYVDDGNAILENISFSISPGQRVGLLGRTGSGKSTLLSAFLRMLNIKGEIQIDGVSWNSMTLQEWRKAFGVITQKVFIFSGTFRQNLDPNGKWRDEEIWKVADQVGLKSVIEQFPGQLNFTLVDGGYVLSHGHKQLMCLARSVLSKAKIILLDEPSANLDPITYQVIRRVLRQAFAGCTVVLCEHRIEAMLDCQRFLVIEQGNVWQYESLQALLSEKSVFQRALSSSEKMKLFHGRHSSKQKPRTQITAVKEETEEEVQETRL

On to `COc1cc(CNC(=O)c2sc3ccccc3c2OC)cc(OC)c1`, for which, in assay [1], the fold change (FC) is 1.7.
With `CN(C(=O)Cc1c[nH]c2ccccc12)[C@H](C(=O)Nc1ccc(-n2cc(CCCF)nn2)cc1)c1ccccc1`, the EC50 in assay [2] amounted to 1100 nM.
As to `CC(C)c1ccc(NC(=O)C(c2ccccc2)N(C)C(=O)Cc2c[nH]c3ccccc23)cc1` (stereo unspecified), the Ratio EC50 in assay [3] was determined as 100. Also, in assay [4], the EC50 was 70 nM.
As for `CCCCCn1cc(S(=O)(=O)Nc2ccc(CC)cc2)c2cccnc21`, the 50% effective concentration (EC50) in assay [5] was 1000 nM.
On to `COc1c(C(=O)NCc2ccccc2Br)sc2ccccc12`, for which the fold change (FC) in assay [1] is 2.4.
On the same count and under the same terms, under `COc1c(C(=O)NCc2ccc(F)cc2Cl)sc2ccccc12` stands 2.
Consider `CCc1ccc(NS(=O)(=O)c2cn(Cc3ccccn3)c3ncccc23)cc1`, for which, in assay [5], the EC50 came to 600 nM.
On to `COc1ccc(CNC(=O)c2sc3ccc(Cl)cc3c2OC)c(OC)c1`, for which the Activity in assay [6] worked out at 50%.
With `CN(C(=O)Cc1c[nH]c2ccccc12)[C@H](C(=O)Nc1ccc(F)cc1)c1ccccc1`, the EC50 in assay [2] is 90 nM.
In the case of `CCc1ccc(NS(=O)(=O)c2cn(Cc3ccccc3C#N)c3ncccc23)cc1`, the half-maximal effective concentration (EC50) in assay [5] is 700 nM.
